Source: patent US20260356819A1, “OXOISOINDOLINYL-SUBSTITUTED […] DERIVATIVE AND USE THEREOF” (GLUETACS THERAPEUTICS (SHANGHAI) CO., LTD., priority 2023, published 2026)

Columns and labels:
[1] = target: T1, WEE1 (Homo sapiens, UniProt P30291+Q96SW2); assay: Western blot degradation of WEE1 in hPBMCs (24 h); assay type: cell-based; details: compounds at 50 nM and 500 nM
T1 construct: The supernatant was aspirated as the extracted total cell protein; endogenous in cells; host or cells: human peripheral blood mononuclear cells (hPBMCs)
In short: (§1)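 Degradation in primary human PBMCs after 24 h compound exposure at 50 and 500 nM. Western blot band intensities, normalised to an internal control protein, expressed as % protein remaining relative to DMSO.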

[2] = target: T2, GSPT1 (Homo sapiens, UniProt P15170+Q96SW2); assay: Western blot degradation of GSPT1 in hPBMCs (24 h); assay type: cell-based; details: compounds at 50 nM and 500 nM
T2 construct: The supernatant was aspirated as the extracted total cell protein; endogenous in cells; host or cells: human peripheral blood mononuclear cells (hPBMCs)
In short: as §1

[3] = tested on: MGC803 cells; assay: Inhibition of proliferation of gastric cancer cells MGC803 (cell viability assay, 96 h); assay type: cell-based, human; details: read-out: inhibitory activity (IC50) against tumor cells proliferation, MGC803
Protocol: (§2) The tumor cells used herein were cultured in a cell culture medium listed in table 2 at 37 °C in an incubator with 5% CO2. Prior to experimentation, all cell lines used were correctly identified by STR profiling, and tested negative for Mycoplasma contamination using a Mycoplasma detection kit through routine screenings.
The IC50 values of the compounds of the present disclosure (including the compounds in Table 1, and Examples 1-498) were determined using the CellTiter-Meiluncell Luminescent Cell Viability Assay Kit from Dalian Meilun Biotech Co., Ltd. The detailed procedure is as follows: Tumor cells were seeded in 96-well cell culture plates at the densities specified in Table 3. On the following day, the test compounds of the present disclosure were subjected to serial dilution. […] Subsequently, 0.5 μL of the test compound dilution was transferred into the 96-well plate containing the cells, with each well containing 100 μL of cell culture medium. […] Into the 96-well plate, the diluted test compounds and corresponding detection reagents were added, resulting in final test compound concentrations of 500 nM and 10 nM, respectively. The experimental procedure is described below using the diluted 2 μM test compound as an example.
0.5 μL of the aforementioned diluted compound of the present disclosure (including the compounds in Table 1, and Examples 1-498) was added to the seeded cells in 100 μL of medium, yielding a final test compound concentration of 10 nM. After the cells were treated with the compounds of the present disclosure for a specified period, the cell viability assay reagent was added to the culture medium according to the kit's instructions to determine cell viability. […] All controls were treated using the same procedure as the compounds of the present disclosure. The growth inhibition curves for the compounds of the present disclosure were plotted using Prism GraphPad software, and the IC50 values were calculated therefrom.

[4] = tested on: Jurkat cells; assay: Inhibition of proliferation of T lymphocytic leukemia cells Jurkat (cell viability assay, 96 h); assay type: cell-based, human; details: read-out: inhibitory activity (IC50) against tumor cells proliferation, Jurkat
[5] = target: T3, IKZF2 (Homo sapiens, UniProt Q96SW2+Q9UKS7); assay: Western blot degradation of IKZF2 in hPBMCs (24 h); assay type: cell-based; details: compounds at 50 nM and 500 nM
T3 construct: The supernatant was aspirated as the extracted total cell protein; endogenous in cells; host or cells: human peripheral blood mononuclear cells (hPBMCs)
In short: as §1

[6] = target: T4, IKZF1 (Homo sapiens, UniProt Q13422+Q96SW2); assay: Western blot degradation of IKZF1 in hPBMCs (24 h); assay type: cell-based; details: compounds at 50 nM and 500 nM
T4 construct: The supernatant was aspirated as the extracted total cell protein; endogenous in cells; host or cells: human peripheral blood mononuclear cells (hPBMCs)
In short: as §1

[7] = target: T5, IKZF3 (Homo sapiens, UniProt Q96SW2+Q9UKT9); assay: Western blot degradation of IKZF3 in hPBMCs (24 h); assay type: cell-based; details: compounds at 50 nM and 500 nM
T5 construct: The supernatant was aspirated as the extracted total cell protein; endogenous in cells; host or cells: human peripheral blood mononuclear cells (hPBMCs)
In short: as §1

[8] = tested on: MM.1S cells; assay: Inhibition of proliferation of multiple myeloma cells MM.1S (cell viability assay, 96 h); assay type: cell-based, human; details: read-out: inhibitory activity (IC50) against tumor cells proliferation, MM.1S
[9] = target: T6, CK1α (Homo sapiens, UniProt P48729+Q96SW2); assay: Western blot degradation of CK1α in hPBMCs (24 h); assay type: cell-based; details: compounds at 50 nM and 500 nM
T6 construct: The supernatant was aspirated as the extracted total cell protein; endogenous in cells; host or cells: human peripheral blood mononuclear cells (hPBMCs)
In short: as §1

[10] = tested on: H292 cells; assay: Inhibition of proliferation of human lung cancer cells H292 (CellTiter-Meiluncell Luminescent Cell Viability Assay, 96 h); assay type: cell-based
Protocol: as §2
(§3) The IC50 values of the compounds of the present disclosure (including the compounds in Table 1, and Examples 1-498) were determined using the CellTiter-Meiluncell Luminescent Cell Viability Assay Kit from Dalian Meilun Biotech Co., Ltd. The detailed procedure is as follows: Tumor cells were seeded in 96-well cell culture plates at the densities specified in Table 3. On the following day, the test compounds of the present disclosure were subjected to serial dilution. […] Subsequently, 0.5 μL of the test compound dilution was transferred into the 96-well plate containing the cells, with each well containing 100 μL of cell culture medium. […]
(§4) 0.5 μL of the aforementioned diluted compound of the present disclosure (including the compounds in Table 1, and Examples 1-498) was added to the seeded cells in 100 μL of medium, yielding a final test compound concentration of 10 nM. […] The growth inhibition curves for the compounds of the present disclosure were plotted using Prism GraphPad software, and the IC50 values were calculated therefrom.

[11] = tested on: H2228 cells; assay: Inhibition of proliferation of non-small cell lung cancer cells H2228 (cell viability assay, 96 h); assay type: cell-based, human
Protocol: as §2, §3, §4

[12] = tested on: MDA-MB-231 cells; assay: Inhibition of proliferation of breast cancer cells MDA-MB-231 (cell viability assay, 96 h); assay type: cell-based, human
Protocol: as §2, §3, §4

T3 sequence (Q9UKS7 whole entry): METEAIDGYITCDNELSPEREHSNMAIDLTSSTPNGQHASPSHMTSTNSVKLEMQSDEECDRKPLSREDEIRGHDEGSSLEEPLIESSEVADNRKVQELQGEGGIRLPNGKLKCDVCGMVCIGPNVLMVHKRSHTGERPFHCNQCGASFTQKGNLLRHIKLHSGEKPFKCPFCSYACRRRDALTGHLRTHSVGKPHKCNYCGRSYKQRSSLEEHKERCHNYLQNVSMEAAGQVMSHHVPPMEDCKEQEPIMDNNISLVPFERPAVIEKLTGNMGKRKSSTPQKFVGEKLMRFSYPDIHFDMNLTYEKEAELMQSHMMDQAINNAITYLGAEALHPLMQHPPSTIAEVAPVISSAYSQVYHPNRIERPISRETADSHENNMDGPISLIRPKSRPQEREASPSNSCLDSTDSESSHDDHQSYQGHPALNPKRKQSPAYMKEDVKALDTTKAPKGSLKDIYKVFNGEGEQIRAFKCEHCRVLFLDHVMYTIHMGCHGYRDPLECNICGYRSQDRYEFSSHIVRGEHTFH
T3 sequence (Q96SW2 whole entry): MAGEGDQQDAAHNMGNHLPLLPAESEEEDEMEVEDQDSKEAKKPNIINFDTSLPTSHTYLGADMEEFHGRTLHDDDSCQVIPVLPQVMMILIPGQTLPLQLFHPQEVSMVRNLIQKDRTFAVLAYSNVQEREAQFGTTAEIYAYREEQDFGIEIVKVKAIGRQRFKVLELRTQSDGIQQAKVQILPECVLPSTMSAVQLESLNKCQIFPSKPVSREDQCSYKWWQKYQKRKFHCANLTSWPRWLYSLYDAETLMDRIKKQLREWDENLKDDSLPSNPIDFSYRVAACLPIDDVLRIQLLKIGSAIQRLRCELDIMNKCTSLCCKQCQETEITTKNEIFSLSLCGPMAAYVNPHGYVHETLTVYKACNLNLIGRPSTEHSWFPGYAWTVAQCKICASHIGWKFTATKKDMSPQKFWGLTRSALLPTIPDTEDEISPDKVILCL
T3 sequence (Q16531 whole entry partner): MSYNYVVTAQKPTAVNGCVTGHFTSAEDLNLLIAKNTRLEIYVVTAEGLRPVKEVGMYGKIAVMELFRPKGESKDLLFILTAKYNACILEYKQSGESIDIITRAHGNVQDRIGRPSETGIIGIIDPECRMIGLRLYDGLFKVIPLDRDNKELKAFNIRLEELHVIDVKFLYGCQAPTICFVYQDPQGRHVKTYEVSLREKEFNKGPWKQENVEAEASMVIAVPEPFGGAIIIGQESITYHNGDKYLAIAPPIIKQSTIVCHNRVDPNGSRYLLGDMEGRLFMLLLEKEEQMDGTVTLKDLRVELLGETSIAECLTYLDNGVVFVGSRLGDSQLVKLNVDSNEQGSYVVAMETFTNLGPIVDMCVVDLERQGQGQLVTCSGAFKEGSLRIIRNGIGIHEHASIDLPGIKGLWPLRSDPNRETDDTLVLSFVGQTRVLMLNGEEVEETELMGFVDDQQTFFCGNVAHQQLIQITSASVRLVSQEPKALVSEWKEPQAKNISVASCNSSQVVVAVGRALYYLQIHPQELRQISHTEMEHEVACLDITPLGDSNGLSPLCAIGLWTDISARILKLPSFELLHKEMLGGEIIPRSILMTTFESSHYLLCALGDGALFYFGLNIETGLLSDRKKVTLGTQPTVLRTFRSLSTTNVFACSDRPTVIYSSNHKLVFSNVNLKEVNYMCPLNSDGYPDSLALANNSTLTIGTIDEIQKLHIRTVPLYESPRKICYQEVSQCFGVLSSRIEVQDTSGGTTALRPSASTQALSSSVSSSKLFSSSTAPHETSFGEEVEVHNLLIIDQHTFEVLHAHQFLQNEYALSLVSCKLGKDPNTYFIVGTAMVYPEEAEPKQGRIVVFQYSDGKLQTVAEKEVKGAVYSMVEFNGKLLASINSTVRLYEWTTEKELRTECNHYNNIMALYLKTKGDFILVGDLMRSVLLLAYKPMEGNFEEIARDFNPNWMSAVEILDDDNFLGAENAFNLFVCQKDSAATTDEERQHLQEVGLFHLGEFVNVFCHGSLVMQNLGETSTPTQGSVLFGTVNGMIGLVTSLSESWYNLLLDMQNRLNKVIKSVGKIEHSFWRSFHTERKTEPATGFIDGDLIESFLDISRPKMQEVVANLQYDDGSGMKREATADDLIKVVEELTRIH
T4 sequence (Q13422 whole entry): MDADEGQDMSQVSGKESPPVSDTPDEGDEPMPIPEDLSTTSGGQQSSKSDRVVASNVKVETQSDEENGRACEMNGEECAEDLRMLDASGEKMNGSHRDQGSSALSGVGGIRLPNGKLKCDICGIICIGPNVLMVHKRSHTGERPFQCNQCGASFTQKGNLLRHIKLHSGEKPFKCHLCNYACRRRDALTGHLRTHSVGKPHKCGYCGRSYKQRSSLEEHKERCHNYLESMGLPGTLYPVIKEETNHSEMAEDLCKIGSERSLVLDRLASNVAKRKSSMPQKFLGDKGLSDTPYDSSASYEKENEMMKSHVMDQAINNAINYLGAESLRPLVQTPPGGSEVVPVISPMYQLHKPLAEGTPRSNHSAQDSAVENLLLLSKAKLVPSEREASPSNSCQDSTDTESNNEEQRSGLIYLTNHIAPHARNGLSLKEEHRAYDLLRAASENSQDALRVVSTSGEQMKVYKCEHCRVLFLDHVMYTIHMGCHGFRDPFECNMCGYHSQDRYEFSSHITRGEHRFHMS
T4 sequence (Q96SW2 whole entry): as the sequence (Q96SW2 whole entry) above
T4 sequence (Q16531 whole entry partner): as the sequence (Q16531 whole entry partner) above
T5 sequence (Q9UKT9 whole entry): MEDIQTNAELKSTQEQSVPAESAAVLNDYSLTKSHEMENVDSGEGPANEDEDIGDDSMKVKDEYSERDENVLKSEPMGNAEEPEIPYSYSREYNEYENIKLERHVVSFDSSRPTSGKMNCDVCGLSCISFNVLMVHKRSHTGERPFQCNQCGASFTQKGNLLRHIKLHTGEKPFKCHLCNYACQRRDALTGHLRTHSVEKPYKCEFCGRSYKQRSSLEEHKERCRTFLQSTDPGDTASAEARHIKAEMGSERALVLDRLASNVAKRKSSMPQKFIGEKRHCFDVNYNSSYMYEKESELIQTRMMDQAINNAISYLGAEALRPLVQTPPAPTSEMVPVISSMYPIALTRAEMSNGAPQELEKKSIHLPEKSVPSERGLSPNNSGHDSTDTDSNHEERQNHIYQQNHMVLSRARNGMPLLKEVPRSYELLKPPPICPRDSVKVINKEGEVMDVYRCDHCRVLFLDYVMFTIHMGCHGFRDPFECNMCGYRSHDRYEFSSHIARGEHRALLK
T5 sequence (Q96SW2 whole entry): as the sequence (Q96SW2 whole entry) above
T5 sequence (Q16531 whole entry partner): as the sequence (Q16531 whole entry partner) above
T2 sequence (P15170 whole entry): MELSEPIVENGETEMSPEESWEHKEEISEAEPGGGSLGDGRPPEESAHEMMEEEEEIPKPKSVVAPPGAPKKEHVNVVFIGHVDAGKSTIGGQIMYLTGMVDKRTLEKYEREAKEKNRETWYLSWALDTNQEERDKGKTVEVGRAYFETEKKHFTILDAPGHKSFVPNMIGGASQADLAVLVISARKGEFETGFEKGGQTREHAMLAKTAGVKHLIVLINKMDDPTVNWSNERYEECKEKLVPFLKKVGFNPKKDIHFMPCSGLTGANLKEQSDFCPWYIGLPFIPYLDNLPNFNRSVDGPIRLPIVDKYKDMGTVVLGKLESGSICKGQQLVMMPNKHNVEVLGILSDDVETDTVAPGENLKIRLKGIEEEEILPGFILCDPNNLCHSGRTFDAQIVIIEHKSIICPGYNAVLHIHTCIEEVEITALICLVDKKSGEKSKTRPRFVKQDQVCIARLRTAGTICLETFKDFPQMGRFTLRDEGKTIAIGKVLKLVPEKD
T2 sequence (Q96SW2 whole entry): as the sequence (Q96SW2 whole entry) above
T2 sequence (Q16531 whole entry partner): as the sequence (Q16531 whole entry partner) above
T6 sequence (P48729 whole entry): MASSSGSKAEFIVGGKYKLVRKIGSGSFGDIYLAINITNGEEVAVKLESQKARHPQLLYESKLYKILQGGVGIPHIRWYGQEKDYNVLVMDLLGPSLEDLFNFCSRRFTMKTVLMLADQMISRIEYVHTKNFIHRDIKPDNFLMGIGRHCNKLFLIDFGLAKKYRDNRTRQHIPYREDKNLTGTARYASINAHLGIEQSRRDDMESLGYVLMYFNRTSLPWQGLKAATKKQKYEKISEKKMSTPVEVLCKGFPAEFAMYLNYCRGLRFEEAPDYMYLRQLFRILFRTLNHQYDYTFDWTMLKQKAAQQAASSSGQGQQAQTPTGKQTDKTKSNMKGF
T6 sequence (Q96SW2 whole entry): as the sequence (Q96SW2 whole entry) above
T6 sequence (Q16531 whole entry partner): as the sequence (Q16531 whole entry partner) above

Row | SMILES | WEE1 substrate protein remaining % [1] | GSPT1 substrate protein remaining % [2] | IC50 [3] [µM] | IC50 [4] [µM] | IKZF2 substrate protein remaining % [5] | IKZF1 substrate protein remaining % [6] | IKZF3 substrate protein remaining % [7] | IC50 [8] [µM] | CK1α substrate protein remaining % [9] | Inhibition Rate at 10 nM (%) ([10]; H292, 10 nM) | Inhibition Rate at 500 nM (%) ([10]; H292, 500 nM) | Inhibition Rate at 10 nM (%) ([11]; H2228, 10 nM) | Inhibition Rate at 500 nM (%) ([11]; H2228, 500 nM) | Inhibition Rate at 10 nM (%) ([12]; MDA-MB-231, 10 nM) | Inhibition Rate at 500 nM (%) ([12]; MDA-MB-231, 500 nM)
1 | Cc1cc(C2=CCN(Cc3ccc4c(c3)CN(N3CCC(=O)NC3=O)C4=O)CC2)cs1 [GT-04873, 1-(5-((4-(5-methylthiophen-3-yl)-3,6-dihydropyridin-1(2H)-yl)methyl)-1-oxoisoindolin-2-yl)dihydropyrimidine-2,4(1H,3H)-dione] | A (0% ≤ substrate protein remaining % ≤80%) | A (0% ≤ substrate protein remaining % ≤80%) | 0.1 to 0.3 | 0.1 to 0.3 | B (80%< substrate protein remaining % ≤100%) | A (0% ≤ substrate protein remaining % ≤80%) | A (0% ≤ substrate protein remaining % ≤80%) | 0.05 to 0.1 | B (80%< substrate protein remaining % ≤100%) | – | – | – | – | – | –
2 | O=C1CCN(N2Cc3cc(CN4CCN(C(c5ccccc5)c5ccccc5)CC4)ccc3C2=O)C(=O)N1 [GT-04889, 1-(5-((4-benzhydrylpiperazin-1-yl)methyl)-1-oxoisoindolin-2-yl)dihydropyrimidine-2,4(1H,3H)-dione] | A (0% ≤ substrate protein remaining % ≤80%) | A (0% ≤ substrate protein remaining % ≤80%) | 0.3 to 0.5 | 0.3 to 0.5 | A (0% ≤ substrate protein remaining % ≤80%) | A (0% ≤ substrate protein remaining % ≤80%) | A (0% ≤ substrate protein remaining % ≤80%) | 0.1 to 0.3 | B (80%< substrate protein remaining % ≤100%) | – | – | – | – | – | –
3 | O=C1CCN(N2Cc3cc(CN4CCC(N(c5ccccc5)c5ccccc5)CC4)ccc3C2=O)C(=O)N1 [GT-04939, 1-(5-((4-(diphenylamino)piperidin-1-yl)methyl)-1-oxoisoindolin-2-yl)dihydropyrimidine-2,4(1H,3H)-dione] | A (0% ≤ substrate protein remaining % ≤80%) | A (0% ≤ substrate protein remaining % ≤80%) | 0.1 to 0.3 | 0.1 to 0.3 | A (0% ≤ substrate protein remaining % ≤80%) | A (0% ≤ substrate protein remaining % ≤80%) | A (0% ≤ substrate protein remaining % ≤80%) | 0.01 to 0.05 | A (0% ≤ substrate protein remaining % ≤80%) | – | – | – | – | – | –
4 | O=C1CCN(N2Cc3cc(CN4CCC(N(c5ccccc5)c5ccccn5)CC4)ccc3C2=O)C(=O)N1 [GT-04940, 1-(1-oxo-5-((4-(phenyl(pyridin-2-yl)amino)piperidin-1-yl)methyl)isoindolin-2-yl)dihydropyrimidine-2,4(1H,3H)-dione] | A (0% ≤ substrate protein remaining % ≤80%) | A (0% ≤ substrate protein remaining % ≤80%) | 0.1 to 0.3 | 0.1 to 0.3 | A (0% ≤ substrate protein remaining % ≤80%) | A (0% ≤ substrate protein remaining % ≤80%) | A (0% ≤ substrate protein remaining % ≤80%) | 0.05 to 0.1 | A (0% ≤ substrate protein remaining % ≤80%) | – | – | – | – | – | –
5 | O=C1CCN(N2Cc3cc(CN4CCC(Nc5ccccc5-c5ccc(Cl)cc5)CC4)ccc3C2=O)C(=O)N1 [GT-04943, 1-(5-((4-((4′-chloro-[1,1′-biphenyl]-2-yl)amino)piperidin-1-yl)methyl)-1-oxoisoindolin-2-yl)dihydropyrimidine-2,4(1H,3H)-dione] | A (0% ≤ substrate protein remaining % ≤80%) | A (0% ≤ substrate protein remaining % ≤80%) | 0.1 to 0.3 | 0.1 to 0.3 | A (0% ≤ substrate protein remaining % ≤80%) | A (0% ≤ substrate protein remaining % ≤80%) | A (0% ≤ substrate protein remaining % ≤80%) | 0.01 to 0.05 | B (80%< substrate protein remaining % ≤100%) | – | – | – | – | – | –
6 | Nc1cccc2c1CN(C1CCC(=O)NC1=O)C2=O (stereo not drawn) [lenalidomide, reference compound] | – | – | – | – | – | – | – | – | – | b1 (0 < b1 <1%) | b3 (5% ≤ b3 <10%) | d5 (20% ≤ d5 <25%) | d4 (15% ≤ d4 <20%) | f4 (15% ≤ f4 <18%) | f3 (10% ≤ f3 < 15%)
